Measurements: patent US20240150293A1, “SPIROCYCLOHEXANE DERIVATIVES, PHARMACEUTICAL COMPOSITIONS CONTAINING THEM AND THEIR USES AS ANTI-APOPTOTIC INHIBITORS” (LES LABORATOIRES SERVIER, priority 2021, published 2024)

Legend:
[1] = test system: H929 multiple myeloma tumor line; experiment: In vitro cytotoxicity, MTT assay (Example B, Method A); assay type: cell-based; conditions: Homo sapiens, NCI-H929, 48 h, H929 cells, 48 hours exposure, read-out: C50
Method: The cytotoxicity studies were carried out on the H929 multiple myeloma tumor line.
The cells are distributed onto microplates and exposed to the test compounds for 48 hours. The cell viability is then quantified by a colorimetric assay, the Microculture Tetrazolium Assay (Carmichael et al, Cancer Res. 1987, 47, 939-942).
The results are expressed in C50 which means concentration corresponding to […] of effect/inhibition.

[2] = biological target: Cy5-labelled Mcl1 (amino acids 171-321) C286S protein (UniProtKB Q07820) (Homo sapiens (Human), UniProt Q07820, C286S); experiment: Inhibition of Mcl-1 by the fluorescence quenching assay (Example A, Method B); assay type: binding
How it was run: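 Cy5-labelled Mcl1 171-321 C286S (1 nM) quenched by TQ5WS-labelled PUMA peptide (10, 20 or 400 nM); displacement raises fluorescence (Ex 620/Em 680 nm). Buffer 10 mM HEPES, 150 mM NaCl, 0.05% Tween 20, pH 7.4, 5% DMSO; 2 h at room temperature, 11-point curves, IC50 converted to Ki (cKi/eKi).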

Sequence of Cy5-labelled Mcl1 (amino acids 171-321) C286S protein (Q07820 171-321 C286S): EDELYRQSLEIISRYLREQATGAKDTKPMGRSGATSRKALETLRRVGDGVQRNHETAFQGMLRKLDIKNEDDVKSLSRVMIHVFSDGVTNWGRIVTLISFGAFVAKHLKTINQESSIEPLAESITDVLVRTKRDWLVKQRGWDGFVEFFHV

| SMILES | IC50 [1] [nM] | Ki [2] [nM] |
| --- | --- | --- |
| C[C@H]1Cc2nccc(OC[C@H](C)C[C@H]3Cc4ccccc4[C@]34CC[C@@](Nc3cccc(Cl)c3)(C(=O)O)CC4)c2[C@H](C)C1 [Example 667, (1r,2′S,4S)-4-(3-chloroanilino)-2′-[(2R)-3-{[(5R,7R)-5,7-dimethyl-5,6,7,8-tetrahydroquinolin-4-yl]oxy}-2-methylpropyl]-2′,3′-dihydrospiro[cyclohexane-1,1′-indene]-4-carboxylic acid] | 574 | 4.05 |
| C[C@@H](COc1ccnc2c1C(OC(F)F)CCC2)C[C@H]1Cc2ccccc2[C@]12CC[C@@](Nc1cccc(Cl)c1)(C(=O)O)CC2 (stereo partly drawn) [Example 691, (1r,2′S,4S)-4-(3-chloroanilino)-2′-[(2R)-3-{[5-(difluoromethoxy)-5,6,7,8-tetrahydroquinolin-4-yl]oxy}-2-methylpropyl]-2′,3′-dihydrospiro[cyclohexane-1,1′-indene]-4-carboxylic acid] | 806 | 10.9 |
| C[C@@H](COc1ccnc2c1[C@H](C)CCC2)CC1=Cc2cc(Cl)ccc2[C@]12CC[C@@](Nc1cccc(Cl)c1)(C(=O)O)CC2 [Example 777, (1r,4R)-5′-chloro-4-(3-chloroanilino)-2′-[(2R)-2-methyl-3-{[(5R)-5-methyl-5,6,7,8-tetrahydroquinolin-4-yl]oxy}propyl]spiro[cyclohexane-1,1′-indene]-4-carboxylic acid] | 175 | 0.725 |
| C[C@@H](COc1ccnc2ccsc12)CC1=Cc2ccccc2[C@]12CC[C@@](Nc1cccc(Cl)c1)(C(=O)O)CC2 [Example 589, (1r,4R)-4-(3-chloroanilino)-2′-{(2R)-2-methyl-3-[(thieno[3,2-b]pyridin-7-yl)oxy]propyl}spiro[cyclohexane-1,1′-indene]-4-carboxylic acid] | 694 | 8.39 |
| C[C@@H](COc1ccnc2c1[C@H](C)CCC2)C[C@@H]1Cc2ccc(COC3CCCO3)cc2[C@]12CC[C@@](Nc1cccc(Cl)c1)(C(=O)O)CC2 (stereo partly drawn) [Example 871, (1r,2′R,4R)-4-(3-chloroanilino)-2′-[(2R)-2-methyl-3-{[(5R)-5-methyl-5,6,7,8-tetrahydroquinolin-4-yl]oxy}propyl]-6′-{[(oxolan-2-yl)oxy]methyl}-2′,3′-dihydrospiro[cyclohexane-1,1′-indene]-4-carboxylic acid] | 114 | 0.737 |
| O=C(O)[C@]1(Nc2cccc(Cl)c2)CC[C@@]2(CC1)c1ccccc1CC2CC(COc1ccnc2ccsc12)C(F)F (stereo partly drawn) [Example 511, (1r,4r)-4-(3-chloroanilino)-2′-(3,3-difluoro-2-{[(thieno[3,2-b]pyridin-7-yl)oxy]methyl}propyl)-2′,3′-dihydrospiro[cyclohexane-1,1′-indene]-4-carboxylic acid] | 2720 | 19.9 |
| O=C(O)[C@]1(Nc2cccc(Cl)c2)CC[C@]2(CC1)C(CC(F)COc1ccnc3c1CCCC3)=Cc1ccccc12 (single isomer, unassigned) [Example 505, (1r,4r)-4-(3-chloroanilino)-2′-{2-fluoro-3-[(5,6,7,8-tetrahydroquinolin-4-yl)oxy]propyl}spiro[cyclohexane-1,1′-indene]-4-carboxylic acid] | 2380 | 23.4 |
| COCC(COc1ccnc2c1CCC2)CC1Cc2ccccc2[C@]12CC[C@@](Nc1cccc(Cl)c1)(C(=O)O)CC2 (stereo partly drawn) [Example 494, (1r,4r)-4-(3-chloroanilino)-2′-(2-{[(6,7-dihydro-5H-cyclopenta[b]pyridin-4-yl)oxy]methyl}-3-methoxypropyl)-2′,3′-dihydrospiro[cyclohexane-1,1′-indene]-4-carboxylic acid] | 808 | 3.62 |
| C[C@@H](COc1ccnc2c1[C@H](C)CCC2)CC1=Cc2c(F)c(F)ccc2[C@]12CC[C@@](Nc1cccc(Cl)c1)(C(=O)O)CC2 [Example 744, (1r,4R)-4-(3-chloroanilino)-4′,5′-difluoro-2′-[(2R)-2-methyl-3-{[(5R)-5-methyl-5,6,7,8-tetrahydroquinolin-4-yl]oxy}propyl]spiro[cyclohexane-1,1′-indene]-4-carboxylic acid] | 65.2 | 0.342 |
